In test [1] the target is T1, βARR1–ERK2 interaction (Rattus norvegicus, UniProt P29066).
T1 construct: βARR1 or βARR2 construct, with their C terminus truncated (at amino acid 393 or 394, respectively); GST (pGEX4T1) (N, cleaved yes); made in house
Nature of the test: Flag pulldown of βARR1 with ERK2. To be noted: 20-fold molar excess of compound, 30 min. It is filed as biochemical. On the procedure:
(§1) To assess the effects of the compounds on βARR1 interactions with its effector proteins SRC and JNK3, βARR1–Flag (5 μM) was incubated with a 20-fold molar excess of Cmpd-5, Cmpd-46 or Cmpd-64 for 30 min at room temperature. Subsequently, 15 μM of SRC or JNK3 was added. To evaluate compound effects on βARR1–ERK2 binding, βARR1 (15 μM) was pre-incubated with a 20-fold molar excess of Cmpd-5, Cmpd-46 or Cmpd-64 for 30 min at room temperature, followed by the addition of 5 μM ERK2–Flag. Afterward, 50 μl of anti-Flag M2 affinity gel (Millipore Sigma) was added, and the mixtures were incubated for 1 h at room temperature with rotation. The resin was then collected by centrifugation and washed 3 times with 1 ml of 20 mM HEPES (pH 7.5), 100 mM NaCl. Bound proteins were eluted using 0.2 mg ml^−1 Flag peptide in 20 mM HEPES (pH 7.5), 100 mM NaCl, mixed with Laemmli sample buffer (Bio-Rad), and analysed by SDS–PAGE followed by western blotting. Detection was performed using monoclonal anti-Flag M2-peroxidase (HRP) antibody (1:2,000, Sigma-Aldrich A8592, RRID:AB_439702) for βARR1–Flag and ERK2–Flag; polyclonal A1CT antibody[76] (1:5,000) for βARR1; anti-SRC monoclonal antibody (1:10,000, EMD Millipore 05-184, RRID:AB_2302631) for SRC; and anti-JNK3 monoclonal antibody (1:5,000, Cell Signaling 2305, RRID:AB_2281744) for JNK3. Western blot images were taken using Bio-Rad ChemiDoc system and the densitometry analysis was performed by ImageLab v6.1 and statistical differences were determined by one-way ANOVA with Dunnett’s post hoc test in GraphPad Prism software.

Test [2] concerns the target T2, βARR1–JNK3 interaction (Rattus norvegicus, UniProt P29066).
T2 construct: made in house
Nature of the test: Flag pulldown of βARR1 with JNK3. It is filed as biochemical. As to conditions: 20-fold molar excess of compound, 30 min. On the procedure:
as §1

The target of test [3] is T3, βARR1–SRC interaction (Rattus norvegicus, UniProt P29066).
T3 construct: made in house
T3 sequence (P29066 whole entry): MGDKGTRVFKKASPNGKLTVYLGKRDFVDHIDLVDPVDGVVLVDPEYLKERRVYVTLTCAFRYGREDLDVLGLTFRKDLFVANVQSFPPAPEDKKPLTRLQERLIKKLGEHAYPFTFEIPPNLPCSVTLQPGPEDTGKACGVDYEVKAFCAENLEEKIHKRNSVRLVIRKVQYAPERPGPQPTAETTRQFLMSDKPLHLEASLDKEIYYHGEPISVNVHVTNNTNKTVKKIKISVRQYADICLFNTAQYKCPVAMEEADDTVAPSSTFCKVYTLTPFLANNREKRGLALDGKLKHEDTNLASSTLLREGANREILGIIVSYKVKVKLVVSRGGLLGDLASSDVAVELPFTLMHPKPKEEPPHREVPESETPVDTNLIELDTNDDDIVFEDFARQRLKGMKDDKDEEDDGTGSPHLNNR
Description: Flag pulldown of βARR1 with SRC. It is filed as biochemical. As to conditions: 20-fold molar excess of compound, 30 min. As for the experimental part: as §1

For test [4], the system named is β2AR desensitization (cAMP). Nature of the test: FRET (ICUE2) cAMP accumulation, β2AR desensitization. It counts as cell-based. To be noted: 40 μM, 5 min; Iso 10 μM; HEK293 cells stably expressing β2AR. As for the experimental part:
To measure cellular cAMP production in live cells mediated by stimulatory G protein, Gαs-coupled β2AR activation, FRET-based Epac sensors were used as described previously. The Epac2 (ICUE2) sensor contains a CFP and YFP FRET pair. HEK293 cells stably expressing ICUE2 were plated in poly-D-lysine-coated, black, clear-bottom 96-well plates (Corning) at a density of 50,000 cells per well. At least 16 h after plating, cells were washed with PBS and incubated in HEPES-buffered saline solution (10 mM HEPES, 150 mM NaCl, 5 mM KCl, 1.5 mM MgCl2, 1.5 mM CaCl2, 10 mM glucose, 0.2% BSA, pH 7.4) for 1 h at 37 °C. Cells were then treated with either β-arrestin small-molecule modulators (40 μM) or DMSO for 5 min, and baseline fluorescence was monitored. Real-time cAMP measurement was initiated by stimulating cells with 10 μM Iso at 37 °C. FRET changes corresponding to cAMP accumulation were measured as changes in the background-subtracted 480 nm/535 nm fluorescence emission ratio (CFP/YFP), reflecting changes in cAMP levels. The entire cAMP accumulation profile was quantified by calculating the AUC for the time course. To assess the effect of modulators on the agonist-induced cAMP response, AUC values were expressed as a percentage of the response to Iso in the presence of DMSO (set as 100%), enabling comparison of the effect of each modulator relative to this agonist-alone control.
A general note: cAMP levels reflect the balance of adenylyl cyclase and phosphodiesterase activity.

From PMC13489962, “Small-molecule modulation of β-arrestins” (Nature, 2026) come the findings set out here.

“Also recorded” adds a separate entry of the source.

T2 sequence (P29066 whole entry): as above
T2 sequence (P53779 whole entry partner): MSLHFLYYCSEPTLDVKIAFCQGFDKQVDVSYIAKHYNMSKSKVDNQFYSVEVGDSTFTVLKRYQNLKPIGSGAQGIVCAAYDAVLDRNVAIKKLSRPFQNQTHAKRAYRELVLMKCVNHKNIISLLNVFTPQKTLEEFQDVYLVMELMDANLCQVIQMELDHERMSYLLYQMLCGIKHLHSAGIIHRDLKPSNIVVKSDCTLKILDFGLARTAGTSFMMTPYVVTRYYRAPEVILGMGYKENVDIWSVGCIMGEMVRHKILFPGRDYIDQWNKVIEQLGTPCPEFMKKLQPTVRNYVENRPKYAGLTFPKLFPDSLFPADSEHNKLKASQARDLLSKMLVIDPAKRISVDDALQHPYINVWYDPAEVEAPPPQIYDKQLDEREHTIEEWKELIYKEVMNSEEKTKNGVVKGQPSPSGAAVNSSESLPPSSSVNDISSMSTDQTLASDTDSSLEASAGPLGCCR
T1 sequence (P29066 1-393): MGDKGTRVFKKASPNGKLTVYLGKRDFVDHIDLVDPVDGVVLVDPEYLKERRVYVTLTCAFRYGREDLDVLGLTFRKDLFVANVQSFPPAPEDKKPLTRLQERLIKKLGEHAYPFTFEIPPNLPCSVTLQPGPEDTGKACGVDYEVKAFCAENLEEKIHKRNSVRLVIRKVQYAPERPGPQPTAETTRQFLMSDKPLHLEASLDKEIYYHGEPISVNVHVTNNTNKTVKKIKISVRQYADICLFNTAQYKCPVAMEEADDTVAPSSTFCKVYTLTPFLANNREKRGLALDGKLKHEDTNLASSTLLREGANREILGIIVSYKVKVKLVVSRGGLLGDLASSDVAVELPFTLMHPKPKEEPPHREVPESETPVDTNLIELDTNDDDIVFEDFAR

In the case of `C=C1C(=O)[C@]23[C@H](O)[C@H]1CC[C@H]2[C@@]12CO[C@]3(O)[C@@H](O)[C@@H]1C(C)(C)CC[C@@H]2O` [Cmpd-5, (1S,4aR,5S,6S,6aR,9S,11aS,11bS,14R)-1,5,6,14-tetrahydroxy−4,4-dimethyl-8-methylenedecahydro-1H-6,11b-(epoxymethano)-6a,9-methanocyclohepta[a]naphthalen-7(8H)-one], the “effect on βARR1 binding to ERK2” value in test [1] was “reduced; also recorded: significantly inhibited”. In addition, the “effect on βARR1 binding to JNK3” value in test [2] is “minimal change”. Also, the “effect on βARR1 binding to SRC” value in test [3] is listed as “reduced”. For the same compound, the “Iso-induced cAMP accumulation (AUC) relative to DMSO (set to 100%)” value in test [4] amounted to 191%.

For `C=C1C(=O)OC2CC3(C)OC3CCC(C)=CC(OC(C)=O)C12` (stereo not drawn) [Cmpd-64, (Z)-4,10a-dimethyl-7-methylene-8-oxo-1a,2,3,6,6a,7,8,9a,10,10a decahydrooxireno[2’,3’:8,9]cyclodeca[1,2-b]furan-6-yl acetate], in test [1], the “effect on βARR1 binding to ERK2” value was “reduced”. Besides, the “effect on βARR1 binding to JNK3” value in test [2] is reported as “minimal change”. Besides, in test [3], the “effect on βARR1 binding to SRC” value is “markedly reduced”. The “Iso-induced cAMP accumulation (AUC) relative to DMSO (set to 100%)” value in test [4] was 282%.

Turning to `C=C1C(=O)C2=CC1CCC(=O)C1(C)CCC(OCC)C(C)(C)C1CC2O` (stereo not drawn) [Cmpd-46, (Z)-3-ethoxy-6-hydroxy-4,4,13a-trimethyl-9-methylene-1,2,3,4,4a,5,6,9,10,11,12,13a-dodecahydro-7,10-(metheno)benzo[11]annulene-8,13-dione], the “effect on βARR1 binding to ERK2” value in test [1] is “reduced”. Also, the “effect on βARR1 binding to JNK3” value in test [2] is reported as “minimal change”. Also, the “effect on βARR1 binding to SRC” value in test [3] was “markedly reduced”. Further, the “Iso-induced cAMP accumulation (AUC) relative to DMSO (set to 100%)” value in test [4] was 207%.
